Results taken from patent publication US9260417B2, “Therapeutic methods and compositions involving allosteric kinase inhibition” (AMITECH THERAPEUTIC SOLUTIONS, INC., priority 2010, dated 2016).

What was measured:
[1] = target: PKAC-alpha (Homo sapiens (Human), UniProt P17612); experiment: KINOMEscan competitive binding assay; conditions: 10 uM
[2] = Pharmacokinetic analysis in mice; type: in vivo
[3] = target: RAF1 (Homo sapiens (Human), UniProt P04049); experiment: KINOMEscan competitive binding assay; conditions: 10 uM
RAF1, sequence (P04049 349-609): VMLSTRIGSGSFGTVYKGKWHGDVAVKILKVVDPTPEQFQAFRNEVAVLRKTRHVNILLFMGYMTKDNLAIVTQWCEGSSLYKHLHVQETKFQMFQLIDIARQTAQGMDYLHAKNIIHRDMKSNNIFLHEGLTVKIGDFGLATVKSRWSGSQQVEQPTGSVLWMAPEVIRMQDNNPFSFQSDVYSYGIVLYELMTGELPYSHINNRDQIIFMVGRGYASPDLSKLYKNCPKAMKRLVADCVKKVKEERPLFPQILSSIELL

[4] = target: PRKCD (Homo sapiens (Human), UniProt Q05655); experiment: KINOMEscan competitive binding assay; conditions: 10 uM
PRKCD, sequence (Q05655 whole entry): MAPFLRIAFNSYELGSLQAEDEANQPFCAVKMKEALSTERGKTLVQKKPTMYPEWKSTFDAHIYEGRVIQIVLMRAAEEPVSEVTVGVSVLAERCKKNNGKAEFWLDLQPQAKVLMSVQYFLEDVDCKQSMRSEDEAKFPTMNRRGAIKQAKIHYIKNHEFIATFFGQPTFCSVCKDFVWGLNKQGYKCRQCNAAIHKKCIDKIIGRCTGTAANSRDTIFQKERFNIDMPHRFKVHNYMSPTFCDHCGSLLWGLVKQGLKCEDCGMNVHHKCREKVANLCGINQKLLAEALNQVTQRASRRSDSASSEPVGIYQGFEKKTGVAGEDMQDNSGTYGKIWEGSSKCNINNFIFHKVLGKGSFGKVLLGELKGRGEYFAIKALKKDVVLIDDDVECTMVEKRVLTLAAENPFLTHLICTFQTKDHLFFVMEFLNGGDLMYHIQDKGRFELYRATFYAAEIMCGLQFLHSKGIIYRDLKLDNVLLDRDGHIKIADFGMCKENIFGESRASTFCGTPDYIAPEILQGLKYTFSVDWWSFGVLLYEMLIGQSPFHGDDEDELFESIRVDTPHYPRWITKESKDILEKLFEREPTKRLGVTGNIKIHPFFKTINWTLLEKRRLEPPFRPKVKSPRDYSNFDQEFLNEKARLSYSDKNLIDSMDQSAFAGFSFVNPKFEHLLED
Description: (§1) In vitro kinase screen and competitive binding assay. Sorafenib as well as test compounds were submitted to Invitrogen and screened using their SelectScreen™ Profiling Service.

[5] = target: CDK2 (Homo sapiens (Human), UniProt P24941); experiment: KINOMEscan competitive binding assay; conditions: 10 uM
Description: as §1

[6] = target: EPHB4 (Homo sapiens (Human), UniProt P54760); experiment: KINOMEscan competitive binding assay; conditions: 10 uM
EPHB4, sequence (P54760 16-987): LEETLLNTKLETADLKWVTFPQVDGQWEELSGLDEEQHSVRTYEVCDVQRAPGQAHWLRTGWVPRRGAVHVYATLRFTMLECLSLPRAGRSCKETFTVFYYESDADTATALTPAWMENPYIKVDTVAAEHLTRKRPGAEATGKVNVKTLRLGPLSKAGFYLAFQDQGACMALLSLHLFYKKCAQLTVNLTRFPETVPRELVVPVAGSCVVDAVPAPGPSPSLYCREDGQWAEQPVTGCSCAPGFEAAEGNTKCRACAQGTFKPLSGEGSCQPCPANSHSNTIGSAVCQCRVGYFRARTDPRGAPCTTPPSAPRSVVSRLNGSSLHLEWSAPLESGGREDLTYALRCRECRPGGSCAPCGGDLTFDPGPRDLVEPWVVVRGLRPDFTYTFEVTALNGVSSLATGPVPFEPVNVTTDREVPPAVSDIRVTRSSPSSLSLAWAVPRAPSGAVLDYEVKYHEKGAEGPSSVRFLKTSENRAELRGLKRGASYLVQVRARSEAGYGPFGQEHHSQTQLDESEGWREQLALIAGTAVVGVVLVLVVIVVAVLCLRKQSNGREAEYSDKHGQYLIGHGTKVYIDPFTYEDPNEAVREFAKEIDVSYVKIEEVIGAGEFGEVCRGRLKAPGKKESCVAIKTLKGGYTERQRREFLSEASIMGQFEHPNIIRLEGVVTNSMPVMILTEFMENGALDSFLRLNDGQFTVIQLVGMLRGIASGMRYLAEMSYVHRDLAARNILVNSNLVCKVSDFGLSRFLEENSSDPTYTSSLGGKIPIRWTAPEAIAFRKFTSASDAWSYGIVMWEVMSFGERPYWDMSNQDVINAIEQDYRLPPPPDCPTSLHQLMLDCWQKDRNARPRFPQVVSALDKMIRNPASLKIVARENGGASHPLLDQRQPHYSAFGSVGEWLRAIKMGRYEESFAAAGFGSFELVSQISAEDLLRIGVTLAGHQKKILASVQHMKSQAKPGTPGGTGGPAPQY
Description: as §1

[7] = target: RIPK1 (Homo sapiens (Human), UniProt Q13546); experiment: KINOMEscan competitive binding assay; conditions: 10 uM
Description: as §1

[8] = target: FAK (Homo sapiens (Human), UniProt Q05397); experiment: KINOMEscan competitive binding assay; conditions: 10 uM
Description: as §1

[9] = target: TIE2 (Homo sapiens (Human), UniProt Q02763); experiment: KINOMEscan competitive binding assay; conditions: 10 uM
Description: as §1

[10] = target: LIMK2 (Homo sapiens (Human), UniProt P53671); experiment: KINOMEscan competitive binding assay; conditions: 10 uM
Description: as §1

[11] = target: CDK7 (Homo sapiens (Human), UniProt P50613); experiment: KINOMEscan competitive binding assay; conditions: 10 uM
Description: as §1

[12] = target: BMX (Homo sapiens (Human), UniProt P51813); experiment: KINOMEscan competitive binding assay; conditions: 10 uM
Description: as §1

[13] = target: AXL (Homo sapiens (Human), UniProt P30530); experiment: KINOMEscan competitive binding assay; conditions: 10 uM
AXL, sequence (P30530 26-894): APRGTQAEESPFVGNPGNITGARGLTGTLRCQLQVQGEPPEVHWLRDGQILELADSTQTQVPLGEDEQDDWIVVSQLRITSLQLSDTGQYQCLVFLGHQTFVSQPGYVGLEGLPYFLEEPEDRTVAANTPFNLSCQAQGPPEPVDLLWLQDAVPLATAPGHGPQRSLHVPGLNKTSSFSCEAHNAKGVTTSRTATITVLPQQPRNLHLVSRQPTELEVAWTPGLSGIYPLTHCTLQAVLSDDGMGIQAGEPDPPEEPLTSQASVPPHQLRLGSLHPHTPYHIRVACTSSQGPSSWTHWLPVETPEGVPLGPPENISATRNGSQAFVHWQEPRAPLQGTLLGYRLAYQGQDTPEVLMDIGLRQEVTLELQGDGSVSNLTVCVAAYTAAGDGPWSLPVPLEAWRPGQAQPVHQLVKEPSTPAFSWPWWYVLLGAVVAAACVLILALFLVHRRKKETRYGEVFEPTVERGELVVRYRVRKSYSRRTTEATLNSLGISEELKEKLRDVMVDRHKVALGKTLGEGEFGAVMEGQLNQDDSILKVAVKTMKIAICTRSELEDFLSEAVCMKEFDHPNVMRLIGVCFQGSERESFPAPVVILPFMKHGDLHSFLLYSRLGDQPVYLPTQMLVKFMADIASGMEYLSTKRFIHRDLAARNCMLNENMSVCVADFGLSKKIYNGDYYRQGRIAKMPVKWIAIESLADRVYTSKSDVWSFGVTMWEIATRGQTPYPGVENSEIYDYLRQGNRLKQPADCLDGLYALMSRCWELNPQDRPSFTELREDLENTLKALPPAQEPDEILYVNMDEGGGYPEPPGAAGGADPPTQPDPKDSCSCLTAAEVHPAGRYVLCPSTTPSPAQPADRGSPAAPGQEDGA
Description: as §1

[14] = target: CDK9 (Homo sapiens (Human), UniProt P50750); experiment: KINOMEscan competitive binding assay; conditions: 10 uM
Description: as §1

[15] = target: FLT3(D835H) (Homo sapiens (Human), UniProt P36888, D835H); experiment: KINOMEscan competitive binding assay; conditions: 10 uM
Description: as §1

[16] = tested on: FLT3(ITD); experiment: KINOMEscan competitive binding assay; conditions: 10 uM
Description: as §1

[17] = target: FLT1 (Homo sapiens (Human), UniProt P17948); experiment: KINOMEscan competitive binding assay; conditions: 10 uM
Description: as §1

[18] = target: PAK4 (Homo sapiens (Human), UniProt O96013); experiment: KINOMEscan competitive binding assay; conditions: 10 uM
Description: as §1

[19] = target: IGF1R (Homo sapiens (Human), UniProt P08069); experiment: KINOMEscan competitive binding assay; conditions: 10 uM
Description: as §1

[20] = target: JNK1 (Homo sapiens (Human), UniProt P45983); experiment: KINOMEscan competitive binding assay; conditions: 10 uM
JNK1, sequence (P45983 whole entry): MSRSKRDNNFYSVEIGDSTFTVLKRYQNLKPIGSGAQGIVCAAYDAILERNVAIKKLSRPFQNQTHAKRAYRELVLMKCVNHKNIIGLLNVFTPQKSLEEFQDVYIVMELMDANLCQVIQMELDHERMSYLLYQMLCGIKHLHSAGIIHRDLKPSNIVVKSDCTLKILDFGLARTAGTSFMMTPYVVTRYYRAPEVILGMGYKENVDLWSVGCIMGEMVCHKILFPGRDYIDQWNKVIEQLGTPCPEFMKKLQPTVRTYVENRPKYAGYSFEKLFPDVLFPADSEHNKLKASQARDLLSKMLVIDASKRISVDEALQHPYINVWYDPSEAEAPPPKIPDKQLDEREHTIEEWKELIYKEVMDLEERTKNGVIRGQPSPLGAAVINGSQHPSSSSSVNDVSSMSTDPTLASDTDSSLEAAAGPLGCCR
Description: as §1

[21] = target: PIK3CA (Homo sapiens (Human), UniProt P42336); experiment: KINOMEscan competitive binding assay; conditions: 10 uM
PIK3CA, sequence (P42336 whole entry): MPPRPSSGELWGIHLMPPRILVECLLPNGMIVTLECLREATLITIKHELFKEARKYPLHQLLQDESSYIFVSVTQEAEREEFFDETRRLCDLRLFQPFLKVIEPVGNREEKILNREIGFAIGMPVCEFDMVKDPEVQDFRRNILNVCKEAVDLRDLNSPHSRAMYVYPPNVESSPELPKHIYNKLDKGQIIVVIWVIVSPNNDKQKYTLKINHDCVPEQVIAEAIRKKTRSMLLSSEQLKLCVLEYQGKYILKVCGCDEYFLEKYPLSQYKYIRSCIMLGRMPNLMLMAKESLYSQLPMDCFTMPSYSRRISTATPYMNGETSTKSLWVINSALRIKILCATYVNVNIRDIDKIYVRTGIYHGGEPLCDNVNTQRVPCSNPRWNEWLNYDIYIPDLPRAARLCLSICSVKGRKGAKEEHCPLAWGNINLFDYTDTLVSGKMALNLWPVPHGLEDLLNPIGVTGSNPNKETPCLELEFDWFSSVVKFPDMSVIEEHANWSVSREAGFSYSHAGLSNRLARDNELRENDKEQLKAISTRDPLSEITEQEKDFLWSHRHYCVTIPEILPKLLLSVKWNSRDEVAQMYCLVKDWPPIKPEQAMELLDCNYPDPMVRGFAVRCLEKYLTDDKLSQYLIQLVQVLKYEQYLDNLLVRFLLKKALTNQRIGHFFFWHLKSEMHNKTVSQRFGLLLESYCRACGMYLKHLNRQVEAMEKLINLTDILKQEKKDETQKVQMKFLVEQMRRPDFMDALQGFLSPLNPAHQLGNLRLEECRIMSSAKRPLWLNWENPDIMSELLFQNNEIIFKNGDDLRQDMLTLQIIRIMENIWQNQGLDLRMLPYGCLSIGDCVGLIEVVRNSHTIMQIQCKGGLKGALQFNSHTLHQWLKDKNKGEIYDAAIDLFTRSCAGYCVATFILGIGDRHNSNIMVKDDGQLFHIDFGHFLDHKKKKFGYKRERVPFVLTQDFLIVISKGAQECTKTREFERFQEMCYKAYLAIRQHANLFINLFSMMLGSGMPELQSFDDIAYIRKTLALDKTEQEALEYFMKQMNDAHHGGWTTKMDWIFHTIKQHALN
Description: as §1

[22] = target: ARK5 (Homo sapiens (Human), UniProt O60285); experiment: KINOMEscan competitive binding assay; conditions: 10 uM
Description: as §1

[23] = target: CDK5 (Homo sapiens (Human), UniProt Q00535); experiment: KINOMEscan competitive binding assay; conditions: 10 uM
Description: as §1

[24] = target: KIT(V559D, V654A) (Homo sapiens (Human), UniProt P10721, V559D/V654A); experiment: KINOMEscan competitive binding assay; conditions: 10 uM
Description: as §1

[25] = target: FLT3 D835Y (Homo sapiens (Human), UniProt P36888, D835Y); experiment: KINOMEscan competitive binding assay; conditions: 10 uM
Description: as §1

[26] = tested on: neointimal hyperplasia; experiment: Mouse carotid artery wire-injury model of neointimal hyperplasia; type: in vivo, mice
Protocol: (FIG. 11A) Mouse carotid arteries were wire-injured as described in the Methods. […] (FIG. 11C) The corresponding percent stenosis (reflecting luminal narrowing) was calculated as described herein, *p<0.01. Error bars are reported as ±SEM. (FIG. 11D) PDGFRβ autophosphorylation in the injured arteries was measured on day 14, 4 h post-dose.
Restenosis is a process that commonly results from balloon angioplasty and/or stent placement resulting in eventual occlusion of arteries by a process described as neointimal hyperplasia (NIH). […] Therefore, the combination of PDGFRβ/B-RAF inhibition would be an ideal treatment for NIH. […] Mouse carotid arteries were wire-injured and treated the following day with 100 mg/kg, qd, via oral gavage. Representative sections of the injured arteries, stained with hematoxylin and eosin (FIG. 11A), were used to calculate the intimal/medial ratio—a measurement of the thickness of the inner two layers of the artery wall, which correlates with the size of the vessel lumen. […] As a pharmacodynamic endpoint, representative arteries were excised 4 h after the final dose and lysates were immunoblotted to detect activated PDGFRβ.

[27] = target: SRC (Homo sapiens (Human), UniProt P12931); experiment: KINOMEscan competitive binding assay; conditions: 10 uM
SRC, sequence (P12931 whole entry, looked up): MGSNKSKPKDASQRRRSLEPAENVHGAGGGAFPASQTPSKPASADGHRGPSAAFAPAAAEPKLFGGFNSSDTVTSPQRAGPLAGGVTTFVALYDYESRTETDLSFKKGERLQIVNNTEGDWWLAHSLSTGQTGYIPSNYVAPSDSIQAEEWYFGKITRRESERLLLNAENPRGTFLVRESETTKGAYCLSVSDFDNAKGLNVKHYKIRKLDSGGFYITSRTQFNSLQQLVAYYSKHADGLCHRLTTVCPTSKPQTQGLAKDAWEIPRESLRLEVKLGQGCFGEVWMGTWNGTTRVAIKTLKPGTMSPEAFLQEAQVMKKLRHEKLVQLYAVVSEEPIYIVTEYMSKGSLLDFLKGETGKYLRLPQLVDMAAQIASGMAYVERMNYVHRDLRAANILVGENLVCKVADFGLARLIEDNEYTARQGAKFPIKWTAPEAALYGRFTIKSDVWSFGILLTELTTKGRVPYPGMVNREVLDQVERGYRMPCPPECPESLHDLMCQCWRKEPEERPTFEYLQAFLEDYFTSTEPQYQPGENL

[28] = Treatment of fibrosis in patients with interstitial lung disease; type: in vivo, human; conditions: 50 mg/Kg/day, oral, 6 months
Protocol: This can include patients referred for presumed pulmonary fibrosis/interstitial pneumonitis (IPF, UIP, NSIP), sarcoidosis, hypersensitivity pneumonitis, cryptogenic organising pneumonia, drug-induced, or other idiopathic ILDs. The patients are evaluated after 6 months of treatment.

[29] = tested on: A549 cells; experiment: Cell proliferation assay (BrdU ELISA) in A549 cells; type: cell-based; conditions: A549, low serum DMEM (0.5% FBS), 72 h
Protocol: A549 cells, which endogenously express oncogenic K-RAS, were plated at 2500 cells/well of a 96-well plate in low serum DMEM (0.5% fetal bovine serum) overnight. The next morning, compounds were serially diluted in DMSO and resuspended in fresh DMEM+0.5% medium, which was added to the cells for 72 h. At this time point the cells were fixed and proliferation was quantified using an ELISA for bromodeoxyuriding incorporation (BrdU ELISA, Millipore, Inc.). BrdU incorporation occurs during S phase and is the classical method for determining cell proliferation rates. In FIG. 14B-C, BrdU incorporation is expressed as a percentage of the BrdU incorporation occurring in cells treated with 0.1% DMSO as control. A dotted line represents the growth rate of cells treated with DMSO alone. […] (FIG. 13C)

Compound: CSc1nc(N)cc(Oc2ccc(-c3nnc(Nc4cccc(C(F)(F)F)c4)[nH]3)cc2)n1 [Compound 6]
- % Control [1]: 100%
- AUC0-12h ([2]; 50 mg/kg, ip, bid): 14700 ng·h/mL
- T1/2 ([2]; 50 mg/kg, ip, bid): 11.5 h
- AUC0-24h ([2]; 100 mg/kg, oral): 8700 ng·h/mL
- Cmax (printed C.) ([2]; 100 mg/kg, oral): 4900 ng/mL
- T1/2 ([2]; 100 mg/kg, oral): 6.1 h
- % Control [3]: 52%
- % Control [4]: 74%
- % Control [5]: 87%
- % Control [6]: 94%
- % Control [7]: 84%
- % Control [8]: 100%
- % Control [9]: 88%
- % Control [10]: 72%
- % Control [11]: 97%
- % Control [12]: 97%
- % Control [13]: 87%
- % Control [14]: 100%
- % Control [15]: 17%
- % Control [16]: 3.1%
- % Control [17]: 81%
- % Control [18]: 100%
- % Control [19]: 100%
- % Control [20]: 98%
- % Control [21]: 100%
- % Control [22]: 70%
- % Control [23]: 88%
- % Control [24]: 15%
- % Control [25]: 18%
- percent stenosis ([26]; 100 mg/kg, qd, oral gavage, 14 days): greatly reduced
- PDGFRβ activation in injured arteries ([26]; 4 h after the final dose): inhibited PDGFRβ activation
- % Control [27]: 90%
- outcome of fibrosis treatment versus placebo [28]: improvement over placebo group
- cell proliferation (BrdU incorporation) versus DMSO control [29]: inhibitor cell proliferation
